According to US12410160B2 (Gilead Sciences, Inc., priority 2021, dated 2025):
Where two headings read alike, the source gives them in different places.

How the values were obtained:
human KHK-C = human KHK-C (Homo sapiens (Human), UniProt P50053); assay: KHK Biochemical Assay (IC50), ADP-Glo, KHK-C; settings: ADP-Glo; average of at least two separate assays
Procedure, shortened: (§1)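 His-tagged enzyme expressed in BL21 (DE3), Ni-NTA purified. Compounds, serially diluted 1:3 in DMSO, pre-incubated 30 min with enzyme in 50 mM Hepes pH 7.4, 140 mM KCl, 5 mM MgCl2, 0.01% Triton-X, then ATP and fructose added; 4 h at room temperature. ADP formation read by ADP-Glo luminescence.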

[1] = biological target: KHK-C expressed in NRK-52E cells (Homo sapiens (Human), UniProt P50053); assay: KHK-C Cell-based Assay (EC50), NRK CTG, fructose-mediated ATP-depletion
human KHK-A = human KHK-A (Homo sapiens (Human), UniProt P50053); assay: KHK Biochemical Assay (IC50), ADP-Glo, KHK-A; settings: ADP-Glo; average of at least two separate assays
Procedure, shortened: as §1

Sequence of human KHK-C (P50053 whole entry): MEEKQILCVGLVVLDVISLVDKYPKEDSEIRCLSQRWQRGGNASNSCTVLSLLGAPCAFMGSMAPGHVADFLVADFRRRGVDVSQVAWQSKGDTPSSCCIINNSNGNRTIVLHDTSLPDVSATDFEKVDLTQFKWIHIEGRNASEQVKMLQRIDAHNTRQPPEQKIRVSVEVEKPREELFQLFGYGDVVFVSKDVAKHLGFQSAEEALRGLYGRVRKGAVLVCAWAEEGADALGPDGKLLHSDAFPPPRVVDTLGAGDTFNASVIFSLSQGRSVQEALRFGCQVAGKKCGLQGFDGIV
Sequence of KHK-C expressed in NRK-52E cells (P50053 whole entry): as above
Sequence of human KHK-A (P50053 other isoform, or with tags, fused parts or gaps): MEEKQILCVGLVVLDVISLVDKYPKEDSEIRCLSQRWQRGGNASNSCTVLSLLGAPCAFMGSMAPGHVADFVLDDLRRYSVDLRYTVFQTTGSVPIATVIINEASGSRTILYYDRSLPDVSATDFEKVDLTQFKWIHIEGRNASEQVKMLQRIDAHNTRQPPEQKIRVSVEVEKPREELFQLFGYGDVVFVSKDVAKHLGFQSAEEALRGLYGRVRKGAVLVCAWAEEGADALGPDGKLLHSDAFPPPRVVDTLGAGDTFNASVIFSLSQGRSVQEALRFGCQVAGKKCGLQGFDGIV

Compound	IC50 (human KHK-C) [nM]	EC50 [1] [nM]	IC50 (human KHK-A) [nM]	EC50 ([1]; read-out: NRK CTG EC50, NRK-52E cells, fructose-mediated ATP-depletion, Cell-Titer Glo) [nM]
C[C@H]1CCN1c1nc2c(c(-c3cccc(CS(C)(=O)=O)c3)n1)CCC2 [Example 88, (S)-2-(2-methylazetidin-1-yl)-4-(3-((methylsulfonyl)methyl)phenyl)-6,7-dihydro-5H-cyclopenta[d]pyrimidine]	62.8	214	75.3	–
NS(=O)(=O)c1cccc(-c2nc(N3CC[C@@H]3CO)nc3c2CCC3)c1 [Example 92, (R)-3-(2-(2-(hydroxymethyl)azetidin-1-yl)-6,7-dihydro-5H-cyclopenta[d]pyrimidin-4-yl)benzenesulfonamide]	93	368	82.3	–
C[C@@H]1CN(c2nc3c(c(-c4ccc(C(N)=O)cc4)n2)CCC3)[C@H]1C [Example 106]	126	–	148	209
C[C@H]1CN(c2nc3c(c(-c4ccc(C(N)=O)cc4)n2)CCC3)[C@H]1C [Example 107, 4-(2-((2S,3S)-2,3-dimethylazetidin-1-yl)-6,7-dihydro-5H-cyclopenta[d]pyrimidin-4-yl)benzamide]	1060	2920	1550	–
C[C@H]1CCN1c1nc2c(c(-c3ccc(C(N)=O)cc3)n1)CC2 [Example 124, (S)-4-(3-(2-methylazetidin-1-yl)-2,4-diazabicyclo[4.2.0]octa-1,3,5-trien-5-yl)benzamide]	328	973	535	–
C[C@H]1[C@H](O)CN1c1nc2c(c(-c3ccc(C(N)=O)cc3)n1)CC2 [Example 125]	572	3560	932	–
C[C@H]1CCN1c1nc2c(c(-c3ccc(OC(F)(F)F)c(S(N)(=O)=O)c3)n1)CCC2 [Example 126, (S)-5-(2-(2-methylazetidin-1-yl)-6,7-dihydro-5H-cyclopenta[d]pyrimidin-4-yl)-2-(trifluoromethoxy)benzenesulfonamide]	400	253	406	–
C[C@H]1CCN1c1nc2c(c(-c3ccc(C4(O)COC4)cc3)n1)CCC2 [Example 127, (S)-3-(4-(2-(2-methylazetidin-1-yl)-6,7-dihydro-5H-cyclopenta[d]pyrimidin-4-yl)phenyl)oxetan-3-ol]	65.5	223	99.6	–
C[C@H]1CCN1c1nc2c(c(-c3cc(S(N)(=O)=O)c(F)cc3F)n1)CCC2 [Example 130, (S)-2,4-difluoro-5-(2-(2-methylazetidin-1-yl)-6,7-dihydro-5H-cyclopenta[d]pyrimidin-4-yl)benzenesulfonamide]	> 5000	> 5000	> 5000	–
C[C@H]1CCN1c1nc2c(c(-c3ccc4ccc(=O)[nH]c4c3)n1)CCC2 [Example 132, (S)-7-(2-(2-methylazetidin-1-yl)-6,7-dihydro-5H-cyclopenta[d]pyrimidin-4-yl)quinolin-2(1H)-one]	71.8	131	97.6	–
C[C@H]1CCN1c1nc2c(c(-c3ccc4ccc(=O)n(CCC(=O)O)c4c3)n1)CCC2 [Example 133, (S)-3-(7-(2-(2-methylazetidin-1-yl)-6,7-dihydro-5H-cyclopenta[d]pyrimidin-4-yl)-2-oxoquinolin-1(2H)-yl)propanoic acid]	141	> 5000	236	–
C[C@H]1CCN1c1nc2c(c(-c3ccc4c(c3)CC(CC(=O)O)C4)n1)CCC2 (stereo partly drawn) [Example 134, 2-(5-(2-((S)-2-methylazetidin-1-yl)-6,7-dihydro-5H-cyclopenta[d]pyrimidin-4-yl)-2,3-dihydro-1H-inden-2-yl)acetic acid]	89.9	1030	158	–
C[C@H]1CCN1c1nc2c(c(-c3ccc4c(c3)CC(CC(N)=O)C4)n1)CCC2 (stereo partly drawn) [Example 135, 2-(5-(2-((S)-2-methylazetidin-1-yl)-6,7-dihydro-5H-cyclopenta[d]pyrimidin-4-yl)-2,3-dihydro-1H-inden-2-yl)acetamide]	111	277	126	–
C[C@H]1CCN1c1nc2c(c(-c3ccc4c(c3)CC3C(C(=O)O)C43)n1)CCC2 (stereo partly drawn) [Example 136, 4-(2-((S)-2-methylazetidin-1-yl)-6,7-dihydro-5H-cyclopenta[d]pyrimidin-4-yl)-1,1a,6,6a-tetrahydrocyclopropa[a]indene-1-carboxylic acid]	62	2460	114	–
C[C@@H]1N(c2nc3c(c(-c4ccc(C(N)=O)cc4)n2)CCC3)C[C@@]1(C)O [Example 141]	290	1260	334	–
NC(=O)c1ccc(-c2nc(N3CCCC3)nc3c2CCC3)cc1 [Example 142, 4-(2-(pyrrolidin-1-yl)-6,7-dihydro-5H-cyclopenta[d]pyrimidin-4-yl)benzamide]	2430	2040	2110	–

The next compounds have a lower IC50 (human KHK-C) than those just listed; values first:

IC50 (human KHK-C) [nM]	EC50 [1] [nM]	IC50 (human KHK-A) [nM]	EC50 ([1]; read-out: NRK CTG EC50, NRK-52E cells, fructose-mediated ATP-depletion, Cell-Titer Glo) [nM]	Compound
26.3	859	22.9	–	C[C@H]1CCN1c1nc2c(c(-c3cccc(S(=O)(=O)NCC(=O)O)c3)n1)CCC2 [Example 74, (S)-((3-(2-(2-methylazetidin-1-yl)-6,7-dihydro-5H-cyclopenta[d]pyrimidin-4-yl)phenyl)sulfonyl)glycine]
7.6	> 5000	9.5	–	C[C@H]1CCN1c1nc2c(c(-c3cccc(NS(=O)(=O)CC(=O)O)c3)n1)CCC2 [Example 81, (S)-2-(N-(3-(2-(2-methylazetidin-1-yl)-6,7-dihydro-5H-cyclopenta[d]pyrimidin-4-yl)phenyl)sulfamoyl)acetic acid]
14.9	> 5000	14.9	–	C[C@H]1[C@H](O)CN1c1nc2c(c(-c3cccc(NS(=O)(=O)CC(=O)O)c3)n1)CCC2 [Example 82]
10.3	> 5000	32.5	–	C[C@H]1CCN1c1nc2c(c(-c3cccc(NS(=O)(=O)CCC(=O)O)c3)n1)CCC2 [Example 83, (S)-3-(N-(3-(2-(2-methylazetidin-1-yl)-6,7-dihydro-5H-cyclopenta[d]pyrimidin-4-yl)phenyl)sulfamoyl)propanoic acid]
38.6	> 5000	50.2	–	C[C@H]1CCN1c1nc2c(c(-c3ccc4c(c3)S(=O)(=O)NC4=O)n1)CCC2 [Example 86, (S)-6-(2-(2-methylazetidin-1-yl)-6,7-dihydro-5H-cyclopenta[d]pyrimidin-4-yl)benzo[d]isothiazol-3(2H)-one 1,1-dioxide]
55.6	120	45.2	–	C[C@H]1CCN1c1nc2c(c(-c3ccc(C(=O)NCCO)cc3)n1)CCC2 [Example 91, (S)—N-(2-hydroxyethyl)-4-(2-(2-methylazetidin-1-yl)-6,7-dihydro-5H-cyclopenta[d]pyrimidin-4-yl)benzamide]
43.1	221	60.3	–	NC(=O)c1ccc(-c2nc(N3CC[C@@H]3CO)nc3c2CCC3)cc1 [Example 95, (R)-4-(2-(2-(hydroxymethyl)azetidin-1-yl)-6,7-dihydro-5H-cyclopenta[d]pyrimidin-4-yl)benzamide]
46.2	> 5000	119	–	C[C@H]1CCN1c1nc2c(c(-c3ccc(-c4nnn[nH]4)cc3)n1)CCC2 [Example 104, (S)-4-(4-(1H-tetrazol-5-yl)phenyl)-2-(2-methylazetidin-1-yl)-6,7-dihydro-5H-cyclopenta[d]pyrimidine]
2.4	6.6	13.4	–	C[C@H]1CCN1c1nc2c(c(-c3cn4cnc(C(N)=O)c4s3)n1)CCC2 [Example 119, (S)-2-(2-(2-methylazetidin-1-yl)-6,7-dihydro-5H-cyclopenta[d]pyrimidin-4-yl)imidazo[5,1-b]thiazole-7-carboxamide]
41.8	51.8	44.5	–	C[C@H]1CCN1c1nc2c(c(-c3ccc(F)c(S(N)(=O)=O)c3)n1)CCC2 [Example 122, (S)-2-fluoro-5-(2-(2-methylazetidin-1-yl)-6,7-dihydro-5H-cyclopenta[d]pyrimidin-4-yl)benzenesulfonamide]
30.5	62.4	40.2	–	Cc1ccc(-c2nc(N3CC[C@@H]3C)nc3c2CCC3)cc1S(N)(=O)=O [Example 123, (S)-2-methyl-5-(2-(2-methylazetidin-1-yl)-6,7-dihydro-5H-cyclopenta[d]pyrimidin-4-yl)benzenesulfonamide]
2.3	6.3	2.3	–	C[C@H]1CCN1c1nc(-c2ccc(C(N)=O)cc2)c2c(n1)C(F)(F)CC2 [Example 128, (S)-4-(7,7-difluoro-2-(2-methylazetidin-1-yl)-6,7-dihydro-5H-cyclopenta[d]pyrimidin-4-yl)benzamide]
55.3	2490	85.8	–	C[C@H]1CCN1c1nc2c(c(-c3ccc4c(c3)CC(C(=O)O)C4)n1)CCC2 (stereo partly drawn) [Example 139, 5-(2-((S)-2-methylazetidin-1-yl)-6,7-dihydro-5H-cyclopenta[d]pyrimidin-4-yl)-2,3-dihydro-1H-indene-2-carboxylic acid]
52.8	163	28.1	–	C[C@H]1CCN1c1nc2c(c(-c3ccc4c(c3)CC(C(N)=O)C4)n1)CCC2 (stereo partly drawn) [Example 140, 5-(2-((S)-2-methylazetidin-1-yl)-6,7-dihydro-5H-cyclopenta[d]pyrimidin-4-yl)-2,3-dihydro-1H-indene-2-carboxamide]
